# In US12662465B2, “EGFR inhibitors” (Blueprint Medicines Corporation, priority 2021, dated 2026):
# Columns and labels:
# [1] = molecular target: intracellular phosphorylation of EGFR (Tyr1068) in PC-9 cells (Ex19Del) (Homo sapiens, UniProt P00533, DEL746-750); assay: PC-9 pEGFR AlphaLISA assay; format: cell-based; settings: 4 hours compound incubation, read-out: Ext pEGFR_PC-9 Ex19Del IC50
# [2] = molecular target: T1, EGFR (d746-750) (Homo sapiens, UniProt P00533, DEL746-750); assay: Biochemical EGFR inhibition assay (Caliper mobility shift), EGFR (d746-750); settings: read-out: Enz EGFR_Exon19-del746-750 IC50
# T1 construct: purchased SignalChem E10-122JG
# [3] = molecular target: T2, EGFR L858R (Homo sapiens, UniProt P00533, L858R); assay: Biochemical EGFR inhibition assay (Caliper mobility shift), EGFR L858R; settings: read-out: Enz EGFR_L858R IC50
# T2 construct: purchased SignalChem E10-122BG
# T2 sequence (P00533 25-1210 L858R): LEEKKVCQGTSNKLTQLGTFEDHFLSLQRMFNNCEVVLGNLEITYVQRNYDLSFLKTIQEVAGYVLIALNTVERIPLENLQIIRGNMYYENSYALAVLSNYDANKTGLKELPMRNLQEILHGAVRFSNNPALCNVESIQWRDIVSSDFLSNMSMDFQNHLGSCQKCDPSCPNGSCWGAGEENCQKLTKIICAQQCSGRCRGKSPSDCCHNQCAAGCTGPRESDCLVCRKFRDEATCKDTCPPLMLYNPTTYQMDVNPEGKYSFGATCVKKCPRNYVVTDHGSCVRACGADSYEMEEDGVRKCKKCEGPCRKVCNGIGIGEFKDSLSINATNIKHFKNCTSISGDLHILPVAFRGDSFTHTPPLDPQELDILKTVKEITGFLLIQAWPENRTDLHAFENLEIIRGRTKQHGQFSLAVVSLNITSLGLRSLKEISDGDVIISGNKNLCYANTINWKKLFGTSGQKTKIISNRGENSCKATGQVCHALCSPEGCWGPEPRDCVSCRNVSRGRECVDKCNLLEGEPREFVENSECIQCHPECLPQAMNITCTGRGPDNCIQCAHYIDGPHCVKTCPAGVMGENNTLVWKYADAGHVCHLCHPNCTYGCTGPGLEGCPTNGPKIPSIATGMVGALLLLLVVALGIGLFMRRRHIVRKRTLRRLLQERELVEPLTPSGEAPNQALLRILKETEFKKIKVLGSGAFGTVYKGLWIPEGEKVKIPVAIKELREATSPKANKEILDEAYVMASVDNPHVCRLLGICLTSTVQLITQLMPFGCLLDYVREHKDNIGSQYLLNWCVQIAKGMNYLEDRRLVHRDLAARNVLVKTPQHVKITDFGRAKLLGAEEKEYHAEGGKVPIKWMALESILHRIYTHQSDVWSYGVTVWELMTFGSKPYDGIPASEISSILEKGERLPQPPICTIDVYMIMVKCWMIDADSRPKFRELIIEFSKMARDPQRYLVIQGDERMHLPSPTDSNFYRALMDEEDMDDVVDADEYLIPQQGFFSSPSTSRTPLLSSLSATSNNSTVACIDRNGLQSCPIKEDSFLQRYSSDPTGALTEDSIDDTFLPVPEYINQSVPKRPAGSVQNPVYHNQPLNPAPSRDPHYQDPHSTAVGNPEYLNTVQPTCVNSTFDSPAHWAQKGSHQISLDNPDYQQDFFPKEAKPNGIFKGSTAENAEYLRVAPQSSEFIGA
# T1 sequence (P00533 with tags, fused parts or gaps DEL746-750 limits assumed): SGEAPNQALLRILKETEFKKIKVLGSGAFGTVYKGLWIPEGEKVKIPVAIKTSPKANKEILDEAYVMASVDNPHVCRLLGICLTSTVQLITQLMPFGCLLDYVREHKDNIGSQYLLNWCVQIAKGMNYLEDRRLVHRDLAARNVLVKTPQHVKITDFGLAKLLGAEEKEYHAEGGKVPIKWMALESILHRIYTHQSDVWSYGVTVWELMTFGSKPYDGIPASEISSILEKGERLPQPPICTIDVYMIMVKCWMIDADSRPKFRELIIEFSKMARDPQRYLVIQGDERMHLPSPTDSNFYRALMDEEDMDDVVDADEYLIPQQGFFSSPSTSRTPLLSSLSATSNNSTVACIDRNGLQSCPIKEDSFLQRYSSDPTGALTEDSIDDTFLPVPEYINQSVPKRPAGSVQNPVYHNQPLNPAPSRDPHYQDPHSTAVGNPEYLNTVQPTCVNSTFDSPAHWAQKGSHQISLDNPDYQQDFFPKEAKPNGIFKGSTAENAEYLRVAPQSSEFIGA
# Chain of intracellular phosphorylation of EGFR (Tyr1068) in PC-9 cells (Ex19Del) (P00533 with tags, fused parts or gaps DEL746-750): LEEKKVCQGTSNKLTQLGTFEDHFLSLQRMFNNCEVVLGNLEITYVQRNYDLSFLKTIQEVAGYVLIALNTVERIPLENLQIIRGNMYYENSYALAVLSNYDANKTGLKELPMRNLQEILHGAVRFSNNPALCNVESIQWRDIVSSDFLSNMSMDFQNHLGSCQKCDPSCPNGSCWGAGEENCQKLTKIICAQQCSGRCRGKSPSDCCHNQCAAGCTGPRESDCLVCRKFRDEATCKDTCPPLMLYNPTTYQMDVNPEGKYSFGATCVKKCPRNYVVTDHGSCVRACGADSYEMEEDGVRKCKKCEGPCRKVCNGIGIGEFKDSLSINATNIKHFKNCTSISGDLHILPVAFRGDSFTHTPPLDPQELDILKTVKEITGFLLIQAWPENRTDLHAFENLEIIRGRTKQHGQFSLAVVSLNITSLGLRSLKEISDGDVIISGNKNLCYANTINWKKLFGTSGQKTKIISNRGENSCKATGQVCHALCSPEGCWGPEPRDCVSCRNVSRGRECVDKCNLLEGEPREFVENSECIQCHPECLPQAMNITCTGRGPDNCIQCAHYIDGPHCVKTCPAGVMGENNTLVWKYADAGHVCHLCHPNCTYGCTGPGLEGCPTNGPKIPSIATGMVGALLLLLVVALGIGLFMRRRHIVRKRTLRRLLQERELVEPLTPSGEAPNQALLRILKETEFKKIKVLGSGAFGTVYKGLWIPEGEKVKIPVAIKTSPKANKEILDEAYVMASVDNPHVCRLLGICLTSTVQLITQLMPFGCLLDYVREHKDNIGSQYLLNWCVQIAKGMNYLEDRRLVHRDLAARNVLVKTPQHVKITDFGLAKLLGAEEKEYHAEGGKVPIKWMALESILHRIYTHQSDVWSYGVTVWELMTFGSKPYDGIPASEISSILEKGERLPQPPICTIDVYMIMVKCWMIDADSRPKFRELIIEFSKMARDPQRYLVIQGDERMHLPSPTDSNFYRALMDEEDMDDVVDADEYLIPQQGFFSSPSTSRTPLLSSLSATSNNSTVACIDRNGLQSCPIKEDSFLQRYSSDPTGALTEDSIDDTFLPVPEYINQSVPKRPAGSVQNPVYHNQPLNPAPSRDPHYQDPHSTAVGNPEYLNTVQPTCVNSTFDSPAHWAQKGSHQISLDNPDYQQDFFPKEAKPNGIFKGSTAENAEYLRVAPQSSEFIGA
Compound,IC50 [1],IC50 [2],IC50 [3]
"C[C@@H](Oc1cc(N2CC[C@H](N(C)C)C2)cc2ncnc(Nc3ccc4ncccc4c3F)c12)C1COC1 [Example 80, 7—((S)-3-(dimethylamino)pyrrolidin-1-yl)-N-(5-fluoroquinolin-6-yl)-5-((R)-1-(oxetan-3-yl)ethoxy)quinazolin-4-amine]",≤ 10 nM,< 10 nM,< 10 nM
"C[C@H](CN(C)C)Oc1cc(N2CCS(=O)(=O)CC2)cc2ncnc(Nc3ccc4ncccc4c3F)c12 [Example 81, (R)-4-(5-((1-(dimethylamino)propan-2-yl)oxy)-4-((5-fluoroquinolin-6-yl)amino)quinazolin-7-yl)thiomorpholine 1,1-dioxide]",> 50.1 nM,> 50.1 nM,> 50.1 nM
"C[C@H](CN(C)C)Oc1cc(N2CC[C@H](C(C)(C)O)C2)cc2ncnc(Nc3c(F)cc4ncccc4c3F)c12 [Example 88, 2—((S)-1-(4-((5,7-difluoroquinolin-6-yl)amino)-5-(((R)-1-(dimethylamino)propan-2-yl)oxy)quinazolin-7-yl)pyrrolidin-3-yl)propan-2-ol]",≤ 10 nM,< 10 nM,< 10 nM
"C[C@H](CN(C)C)Oc1cc(N2C3COCC2C3)cc2ncnc(Nc3ccc4ncccc4c3F)c12 [Example 89, 7-(3-oxa-6-azabicyclo[3.1.1]heptan-6-yl)-5-(((R)-1-(dimethylamino)propan-2-yl)oxy)-N-(5-fluoroquinolin-6-yl)quinazolin-4-amine]",> 50.1 nM,> 50.1 nM,> 50.1 nM
"C[C@H](CN(C)C)Oc1cc(N2CCOC3(CC3)C2)cc2ncnc(Nc3ccc4ncccc4c3F)c12 [Example 91, (R)-5-((1-(dimethylamino)propan-2-yl)oxy)-N-(5-fluoroquinolin-6-yl)-7-(4-oxa-7-azaspiro[2.5]octan-7-yl)quinazolin-4-amine]",> 50.1 nM,10.1 to 50 nM,> 50.1 nM

# Further lines, results first:
IC50 [1],IC50 [2],IC50 [3],Compound
≤ 10 nM,< 10 nM,< 10 nM,"C[C@H](CN(C)C)Oc1cc(-n2cc(F)cn2)cc2ncnc(Nc3ccc4ncccc4c3F)c12 [Example 82, (R)-5-((1-(dimethylamino)propan-2-yl)oxy)-7-(4-fluoro-1H-pyrazol-1-yl)-N-(5-fluoroquinolin-6-yl)quinazolin-4-amine]"
≤ 10 nM,< 10 nM,< 10 nM,"Cc1cnn(-c2cc(O[C@H](C)CN(C)C)c3c(Nc4ccc5ncccc5c4F)ncnc3c2)c1 [Example 83, (R)-5-((1-(dimethylamino)propan-2-yl)oxy)-N-(5-fluoroquinolin-6-yl)-7-(4-methyl-1H-pyrazol-1-yl)quinazolin-4-amine]"
≤ 10 nM,< 10 nM,10.1 to 50 nM,"C[C@H](CN(C)C)Oc1cc(N2CCn3cncc3C2)cc2ncnc(Nc3ccc4ncccc4c3F)c12 [Example 90, (R)-7-(5,6-dihydroimidazo[1,5-a]pyrazin-7(8H)-yl)-5-((1-(dimethylamino)propan-2-yl)oxy)-N-(5-fluoroquinolin-6-yl)quinazolin-4-amine]"
10.1 to 50 nM,< 10 nM,10.1 to 50 nM,"C[C@H](CN(C)C)Oc1cc(N2CCOC[C@@H]2CO)cc2ncnc(Nc3ccc4ncccc4c3F)c12 [Example 92, ((S)-4-(5-(((R)-1-(dimethylamino)propan-2-yl)oxy)-4-((5-fluoroquinolin-6-yl)amino)quinazolin-7-yl)morpholin-3-yl)methanol]"
10.1 to 50 nM,< 10 nM,10.1 to 50 nM,"C[C@H](CN(C)C)Oc1cc(N2CC(C)(O)C2)cc2ncnc(Nc3ccc4ncccc4c3F)c12 [Example 93, (R)-1-(5-((1-(dimethylamino)propan-2-yl)oxy)-4-((5-fluoroquinolin-6-yl)amino)quinazolin-7-yl)-3-methylazetidin-3-ol]"
10.1 to 50 nM,< 10 nM,10.1 to 50 nM,"C[C@H](CN(C)C)Oc1cc(N2CCC(C)(O)CC2)cc2ncnc(Nc3ccc4ncccc4c3F)c12 [Example 94, (R)-1-(5-((1-(dimethylamino)propan-2-yl)oxy)-4-((5-fluoroquinolin-6-yl)amino)quinazolin-7-yl)-4-methylpiperidin-4-ol]"
